Consider 4 substances from patent US20240009276A1, “S[…] OF IMMUNITY AGAINST RNA VIRUSES” (Health Research, Inc., priority 2020, published 2024).

The test system of series [1] is SARS-CoV. Particulars: mouse, in vivo; cited from earlier work.
The subject of series [2] is Human epithelial cells (SW620). In kind it is cell-based. More on the design: key to synergy of combination with Poly-IC / synergy of combination with rintatolimod / synergy of combination with TNFα: Yes*: *Direct support by current data (Rintatolimod and poly-IC share binding to TLR3 but not other immunostimulatory properties/recognition receptors/signaling pathways^3).

For series [3] the following is noted: cited from earlier work.
In series [4] the test system is human coronavirus OC43. The following applies: human coronavirus OC43, BS-C-1 kidney cells; cited from earlier work.

Regarding IFNα, the antiviral/survival effect result in series [1] is “significant antiviral/survival effect”. In addition, in series [2], the “synergy of combination with Poly-IC” value is “Yes*”, the “synergy of combination with TNFα” value is “Yes*” and the “synergy of combination with rintatolimod” value is recorded as “Yes*”.

IFNγ: in series [2], the “synergy of combination with Poly-IC” value is “Yes*”, the “synergy of combination with TNFα” value is “Yes*” and the “synergy of combination with rintatolimod” value is recorded as “Yes*”.

With “polyinosinic:polycytidylic acid [poly-I:C, reference compound]”, in series [2], the “induction of genes involved in SARS-Cov elimination (OAS2, Ifit-1, Mx1, RIG-I, MDA5, TLR3, other ISGs)” value is listed as “synergistic effects”.

With rintatolimod [reference compound], the “easily achievable concentration in humans” value in series [3] was 40 µg/mL. Moreover, in series [1], the antiviral/survival effect result is given as “significant antiviral/survival effect”. Also, in series [4], the EC50 was 0.4 µg/mL. Also, in series [2], the “induction of genes involved in SARS-Cov elimination (OAS2, Ifit-1, Mx1, RIG-I, MDA5, TLR3, other ISGs)” value was “synergistic effects”.
